This is an account of results in patent publication US20230107195A1, “TREATMENT OF CANCER WITH SMG1-INHIBITORS” (Celgene Corporation, priority 2017, published 2023).

Entries after “also recorded” stand apart in the source; their conditions may differ.

One assay addresses T1, DNA-PK (Homo sapiens, UniProt P78527).
T1 construct: lysates were prepared from cell pellets and incubated with ADP and ATP probes; endogenous in cells
Nature of the assay: ActivX KiNativ assay (probe binding, LC-MS). The conditions noted are these: 0.3 μM and 1.0 μM dose, 1 h, four different cell lines. Here is the method: (§1) After 1 h, the medium was aspirated; cells were rinsed once with ice cold PBS, scraped off and transferred to a 15 ml conical tube. Cells were pelleted by centrifugation, the supernatant was discarded and pellets were frozen on dry ice and stored at −80° C. KiNativ assay: Briefly, lysates were prepared from cell pellets and incubated with ADP and ATP probes. After a tryptic digest, the probe labeled peptides were characterized and quantified using targeted Liquid Chromatography-Mass Spectrometry (LC-MS). Percent inhibition is defined as the reduction of probe binding in the presence of compound, indicating binding of the compound to the kinase.

The target of assay [1] is T2, SMG1 (Homo sapiens, UniProt Q96Q15).
T2 construct: endogenous in cells; host or cells: HCT-116 parental and HCT-116 DNA-PK-/- cells
Nature of the assay: ActivX KiNativ assay (probe binding, LC-MS). The note with it: 0.3 μM and 1.0 μM dose, 1 h, four different cell lines. As to the method:
as §1

Assay [2] deals with T3, TORK (Homo sapiens, UniProt P42345). Nature of the assay: Western blot for markers of TORK inhibition (pS6 and p4EBP1) in HCT-116 cells. The class given is cell-based. The note with it: parental and DNAPK−/− HCT116 cells.
In assay [3] the target is T2, SMG1. Nature of the assay: Western blot for marker of SMG1 inhibition (pATM/ATR substrate band colocalizing with UPF1) in HCT-116 cells. The class given is cell-based. The conditions noted are these: parental and DNAPK−/− HCT116 cells. From the text: SDS-PAGE and Western blot: Equal amounts of protein were subjected to SDS-PAGE using 3-8% tris-acetate protein gels (Thermo Fisher Scientific #A03755BOX, for DNA-PK, SMG1 and vinculin detection) and 4-12% bis-tris protein gels (Thermo Fisher Scientific #NP0323BOX, for phospho-(Ser/Thr) ATM/ATR substrate, UPF1, GAPDH, S6, phospho-4E-BP1, and cofilin detection). Proteins were electrophoretically transferred to 0.2 μm nitrocellulose membranes (Thermo Fisher Scientific #LC2000) and blocked for 1 hour with Odyssey Blocking Buffer TBS (LI-COR #927-50000). Membranes from 3-8% tris-acetate gels were incubated overnight with antibodies against total DNA-PK (Cell Signaling #12311), phospho DNA-PK (Ser2056) (Abcam #ab124918), total SMG1 (Cell Signaling #9149) and vinculin (Sigma #V9264). Membranes from 4-12% bis-tris gels were incubated overnight with antibodies against phospho-(Ser/Thr) ATM/ATR substrate (Cell Signaling #2851), total UPF1 (Sigma #SAB 1402893), GAPDH (Santa Cruz #47724), total S6 Ribosomal Protein (Santa Cruz #74459), phosphoS6 Ribosomal Protein (Ser240/244) (Cell Signaling #5364), phospho-4E-BP1 (Thr70) (Cell Signaling #9455), and cofilin (Santa Cruz #376476). Membranes were washed with TBST and incubated with IRDye 800CW Goat anti-Rabbit IgG (LI-COR #926-32211) and IRDye 680LT Goat anti-Mouse IgG (LI-COR #926-68020) secondary antibodies for 1 hour. […]

The target in assay [4] is T3, TORK. Nature of the assay: ActivX KiNativ assay (probe binding, LC-MS). Also noted: lysates were prepared from cell pellets and incubated with ADP and ATP probes; endogenous in cells. The note with it: 0.3 μM and 1.0 μM dose, 1 h, four different cell lines.

T2 sequence (Q96Q15 whole entry): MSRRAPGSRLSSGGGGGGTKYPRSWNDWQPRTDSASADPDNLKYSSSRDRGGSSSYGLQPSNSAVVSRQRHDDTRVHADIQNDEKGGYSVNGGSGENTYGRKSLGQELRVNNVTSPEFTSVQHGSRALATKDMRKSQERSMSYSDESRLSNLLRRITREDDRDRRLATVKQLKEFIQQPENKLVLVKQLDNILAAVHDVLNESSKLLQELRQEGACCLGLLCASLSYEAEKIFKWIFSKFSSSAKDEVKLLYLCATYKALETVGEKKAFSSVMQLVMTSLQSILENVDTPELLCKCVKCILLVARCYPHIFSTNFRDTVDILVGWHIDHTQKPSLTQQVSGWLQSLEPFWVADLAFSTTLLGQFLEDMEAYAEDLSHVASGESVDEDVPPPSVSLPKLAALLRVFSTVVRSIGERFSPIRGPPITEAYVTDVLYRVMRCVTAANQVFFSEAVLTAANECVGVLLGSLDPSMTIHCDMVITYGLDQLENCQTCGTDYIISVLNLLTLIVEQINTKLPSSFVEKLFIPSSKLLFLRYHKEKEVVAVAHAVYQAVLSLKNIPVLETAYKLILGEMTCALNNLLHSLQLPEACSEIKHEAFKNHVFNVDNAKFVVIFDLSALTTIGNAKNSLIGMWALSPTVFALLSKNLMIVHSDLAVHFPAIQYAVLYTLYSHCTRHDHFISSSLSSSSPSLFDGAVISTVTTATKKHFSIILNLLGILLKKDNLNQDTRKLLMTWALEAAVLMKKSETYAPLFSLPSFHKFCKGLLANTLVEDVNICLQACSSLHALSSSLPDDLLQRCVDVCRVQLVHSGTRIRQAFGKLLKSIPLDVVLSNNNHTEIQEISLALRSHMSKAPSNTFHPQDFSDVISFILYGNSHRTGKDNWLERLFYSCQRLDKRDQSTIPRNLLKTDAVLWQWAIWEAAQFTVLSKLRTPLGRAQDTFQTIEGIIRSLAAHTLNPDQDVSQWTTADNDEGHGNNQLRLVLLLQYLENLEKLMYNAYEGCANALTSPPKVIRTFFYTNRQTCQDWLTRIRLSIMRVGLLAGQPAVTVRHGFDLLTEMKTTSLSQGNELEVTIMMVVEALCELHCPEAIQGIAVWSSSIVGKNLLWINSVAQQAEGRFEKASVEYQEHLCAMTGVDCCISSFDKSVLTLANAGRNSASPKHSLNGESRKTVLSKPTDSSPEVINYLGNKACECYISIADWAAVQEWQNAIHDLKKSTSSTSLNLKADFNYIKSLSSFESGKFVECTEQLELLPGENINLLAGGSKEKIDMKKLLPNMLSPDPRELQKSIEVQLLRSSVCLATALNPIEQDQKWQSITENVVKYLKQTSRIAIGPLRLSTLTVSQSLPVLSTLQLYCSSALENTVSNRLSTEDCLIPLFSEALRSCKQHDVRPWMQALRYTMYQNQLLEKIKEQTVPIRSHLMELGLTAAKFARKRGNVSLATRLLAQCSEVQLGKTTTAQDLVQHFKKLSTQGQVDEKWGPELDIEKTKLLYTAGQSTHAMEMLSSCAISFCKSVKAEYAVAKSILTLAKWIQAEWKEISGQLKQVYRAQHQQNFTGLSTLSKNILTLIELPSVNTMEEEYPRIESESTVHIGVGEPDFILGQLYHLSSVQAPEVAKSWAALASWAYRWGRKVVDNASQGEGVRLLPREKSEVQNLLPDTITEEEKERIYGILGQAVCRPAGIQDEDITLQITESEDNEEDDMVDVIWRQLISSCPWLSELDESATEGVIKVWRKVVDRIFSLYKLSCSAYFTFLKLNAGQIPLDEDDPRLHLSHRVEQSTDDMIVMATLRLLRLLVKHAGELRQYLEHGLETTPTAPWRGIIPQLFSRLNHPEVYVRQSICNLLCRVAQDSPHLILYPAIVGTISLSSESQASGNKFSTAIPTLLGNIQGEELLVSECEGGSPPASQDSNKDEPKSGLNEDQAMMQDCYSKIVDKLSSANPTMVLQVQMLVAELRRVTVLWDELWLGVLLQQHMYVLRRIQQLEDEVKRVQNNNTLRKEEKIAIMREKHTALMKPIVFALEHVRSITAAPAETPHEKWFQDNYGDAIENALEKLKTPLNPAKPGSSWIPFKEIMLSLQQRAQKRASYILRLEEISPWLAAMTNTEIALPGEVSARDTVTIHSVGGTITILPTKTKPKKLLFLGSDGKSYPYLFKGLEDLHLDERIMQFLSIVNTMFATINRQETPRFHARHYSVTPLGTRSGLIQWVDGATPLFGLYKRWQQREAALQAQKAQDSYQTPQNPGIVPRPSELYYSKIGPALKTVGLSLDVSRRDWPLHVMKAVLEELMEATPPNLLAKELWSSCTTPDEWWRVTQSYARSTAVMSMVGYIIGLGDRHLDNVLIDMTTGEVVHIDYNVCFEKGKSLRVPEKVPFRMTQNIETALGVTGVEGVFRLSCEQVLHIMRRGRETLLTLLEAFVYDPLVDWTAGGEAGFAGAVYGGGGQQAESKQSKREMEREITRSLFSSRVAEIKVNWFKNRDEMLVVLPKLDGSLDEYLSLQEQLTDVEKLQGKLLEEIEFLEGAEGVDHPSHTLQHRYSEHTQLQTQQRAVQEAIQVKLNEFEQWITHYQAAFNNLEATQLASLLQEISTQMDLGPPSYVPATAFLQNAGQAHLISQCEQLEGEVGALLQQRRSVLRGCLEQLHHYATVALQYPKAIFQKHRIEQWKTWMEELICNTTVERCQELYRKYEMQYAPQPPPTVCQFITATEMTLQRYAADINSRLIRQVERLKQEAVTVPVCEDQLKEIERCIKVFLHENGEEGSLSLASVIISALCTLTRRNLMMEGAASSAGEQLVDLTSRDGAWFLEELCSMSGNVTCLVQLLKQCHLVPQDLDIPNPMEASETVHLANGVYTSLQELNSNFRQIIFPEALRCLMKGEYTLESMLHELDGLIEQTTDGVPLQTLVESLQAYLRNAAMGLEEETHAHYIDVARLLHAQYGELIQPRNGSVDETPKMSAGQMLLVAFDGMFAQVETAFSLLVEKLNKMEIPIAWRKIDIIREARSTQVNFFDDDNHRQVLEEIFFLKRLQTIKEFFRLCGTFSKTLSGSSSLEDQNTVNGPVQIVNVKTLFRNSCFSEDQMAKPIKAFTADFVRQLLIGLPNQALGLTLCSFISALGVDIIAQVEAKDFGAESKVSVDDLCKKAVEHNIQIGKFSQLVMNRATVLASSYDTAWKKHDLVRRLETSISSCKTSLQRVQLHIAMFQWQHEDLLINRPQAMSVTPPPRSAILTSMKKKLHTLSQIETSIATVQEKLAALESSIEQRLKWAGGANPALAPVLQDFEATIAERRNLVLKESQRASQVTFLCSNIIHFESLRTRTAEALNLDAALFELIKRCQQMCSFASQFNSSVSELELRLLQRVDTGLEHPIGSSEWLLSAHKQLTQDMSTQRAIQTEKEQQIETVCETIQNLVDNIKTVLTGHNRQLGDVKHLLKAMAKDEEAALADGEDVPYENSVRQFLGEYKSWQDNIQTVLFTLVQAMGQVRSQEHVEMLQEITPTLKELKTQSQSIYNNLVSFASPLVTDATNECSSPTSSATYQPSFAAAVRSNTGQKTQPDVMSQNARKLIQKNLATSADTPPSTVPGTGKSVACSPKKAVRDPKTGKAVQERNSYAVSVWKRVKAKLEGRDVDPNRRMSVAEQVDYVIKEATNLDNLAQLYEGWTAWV

As for `CO[C@H]1CC[C@H](N2C(=O)CNc3ncc(-c4ccc(C(C)(C)O)nc4)nc32)CC1` [Compound 2, 7-(6-(2-hydroxypropan-2-yl)pyridin-3-yl)-1-((trans)-4-methoxycyclohexyl)-3,4-dihydropyrazino[2,3-b]pyrazin-2(1H)-one], the “binding to DNA-PK (% inhibition of probe binding)” value at DNA-PK is “only binds TORK”. Also, the “binding to SMG1 (% inhibition of probe binding)” value on SMG1 [1] is recorded as “only binds TORK”. In addition, the “markers of TORK inhibition (pS6 and p4EBP1)” value at TORK [2] was “binds to TORK (pS6 and p4EBP1) only; also recorded: reduced”. Moreover, on SMG1 [3], the “marker of SMG1 inhibition (pATM/ATR substrate, pUPF1)” value was “binds to TORK (pS6 and p4EBP1) only; also recorded: not by Compound 2”. The “binding to TORK (% inhibition of probe binding)” value at TORK [4] was “only binds TORK”.
